Square brackets hold non-standard residues; d marks the D form. Peptide text beside a SMILES is read from it. * marks the point of attachment. ξ: configuration not given here. Thr(3ξ) = CC(O)[C@H](N)C(=O)O; X1 = CN(CCC(=O)*)c1ccnc(CS)c1; ξR = N=C(N)NCCCC(N)C(=O)O; ξS = NC(CO)C(=O)O

Holding throughout (format): biochemical
For assay [1], the target named is T1, histones (reconstituted nucleosome) (Homo sapiens, UniProt P04908+P06899+P62805+P68431).
T1 construct: made in house
Briefly: Protein selective acetylation of reconstituted nucleosome mixed with cytoplasm fraction (western blotting, acetylated lysine antibody). Conditions: reconstituted nucleosome + cytoplasm fraction 15%, Ligand-DSH 2 to 5 μM, acyl donor 1 mM, TCEP 100 μM, room temperature, 5 hours; FIG. 3A. From the text:
(§1) Proteins were separated on a 4-20% SDS-PAGE gel, and transferred to a PVDF membrane, followed by blocking with 5% skim milk suspended in TBST for the reaction between the PVDF membrane and primary antibodies. The primary antibodies used were as follows.
(§2) Acetylated-lysine antibody (#9441, Cell Signaling), anti-acetyl Histone H4 (Lys77) (ABE186, Millipore), anti-acetyl Histone H2B (Lys120) (ab176430, Abcam), malonylated-lysine antibody (PTM-901, PTM Biolabs), glutarylated-lysine antibody (PTM-1151, PTM Biolabs), butyrylated-lysine antibody (PTM-301, PTM Biolabs), 2-hydroisobutyrylated antibody (PTM-801, PTM Biolabs), streptavidin-HRP (#3999S, Cell Signaling).
(§3) After washing with TBST, a secondary antibody (Anti-Rabbit IgG, HRP-linked, NA934V, GE) was reacted. The PVDF membrane was treated with a chemilluminescent detection reagent Luminata Forte Western HRP Substrate (Millipore), and the detection was performed using ImageQuant LAS 4000 (GE healthcare life sciences).
(§4) A buffer solution (20 mM Tris-HCl, pH 7.5) containing a reconstituted nucleosome (33 μg/mL 601 DNA) and a cytoplasm fraction (15%) was added with Ligand-DSH (2 to 5 μM), acyl CoA (1 mM), and TCEP (100 μM), followed by reaction at room temperature for 5 hours. Thereafter, western blotting was performed.
First, protein selectivity was evaluated. A reconstituted nucleosome prepared in accordance with a known method (Tachiwana, H. et al., Proceedings of the National Academy of Sciences of the United States of America 2010, 107, 10454-10459) and cytoplasm fractions acquired from living cells were mixed. Then, evaluation was carried out on whether or not the newly developed catalyst could selectively acetylate histones by western blotting using an acetylation lysine antibody (FIG. 3A).
(In western blotting, separated proteins are transferred to a membrane and probed.)

Assay [2] concerns the target T2, reconstituted nucleosome (H2BK120, H4K77) (Homo sapiens, UniProt P04908+P06899+P62805+P68431).
T2 construct: made in house
Briefly: Lysine residue selective acetylation of reconstituted nucleosome (western blotting, residue-selective acetylated lysine antibodies). Conditions: with acetyl CoA, FIG. 3B.
Source text: as §1, §2
(§5) After washing with TBST, a secondary antibody (Anti-Rabbit IgG, HRP-linked, NA934V, GE) was reacted. The PVDF membrane was treated with a chemilluminescent detection reagent Luminata Forte Western HRP Substrate (Millipore), and the detection was performed using ImageQuant LAS 4000 (GE healthcare life sciences). […]
Next, the selectivity of lysine residues in histones was evaluated. A similar reaction was evaluated by western blotting using a residue-selective acetylation lysine antibody.

The target of the next assay is T3, reconstituted nucleosome (Homo sapiens, UniProt P04908+P06899+P62805+P68431).
T3 construct: made in house
The assay is described as follows: Yield determination by LC-MS/MS and exhaustive analysis of lysine residue selectivity. Particulars: for lysine residue selectivity: acetylation of reconstituted nucleosome, FIGS. 5 and 6. The protocol: Cooled trichloroacetic acid (30 μL) was added, and the resultant was placed on ice for 30 minutes. After the centrifugation (4° C., 15000 rpm, 5 minutes), the supernatant was removed. After further centrifugation (4° C., 15000 rpm, 1 minute), the supernatant was again removed. Cooled acetone (450 μL) was added. After the centrifugation (4° C., 15000 rpm, 5 minutes), the supernatant was removed. After further centrifugation (4° C., 15000 rpm, 1 minute), the supernatant was again removed. The above procedure was repeated once more. […] A 1M sulfuric acid (25 μL) was added and placed on ice for 1 hour, followed by centrifugation (4° C., 15000 rpm, 5 minutes), and the supernatant was collected. Centrifugation (4° C., 15000 rpm, 1 minute) was performed again to collect the supernatant to combine with the earlier supernatant. The resultant was added with acetone (500 μL), followed by sufficient stirring, and was placed overnight at −30° C. After the centrifugation (4° C., 15000 rpm, 5 minutes), the supernatant was removed. After further centrifugation (4° C., 15000 rpm, 1 minute), the supernatant was again removed. After drying was performed with a centrifugal evaporator for 10 minutes, an aqueous solution of ammonium bicarbonate (0.1 M, 20 μL) was added. The resultant was added with a mixture of propionic anhydride and methanol (1:3, 20 μL) prepared immediately before, further added with ammonia water (15 μL), and was placed at room temperature for 30 minutes. Drying was performed with a centrifugal evaporator for 75 minutes, followed by treatment with a digestive enzyme.
In the case of trypsin: an aqueous solution of ammonium bicarbonate (0.1M, 50 μL) and trypsin (1 μg) were added, followed by reaction at 37° C. for 21 hours.
In the case of chymotrypsin: 100 mM Tris-HCl, 10 mM CaCl2 (50 μL, pH8.0), and chymotrypsin (8 μg) were added, followed by reaction at 25° C. for 21 hours.
A 5% aqueous solution of formic acid (25 μL) was added, followed by drying with a centrifugal evaporator for 75 minutes. The residue was dissolved in a 0.1% aqueous solution of formic acid (15 μL), and the resultant was used for LC-MS/MS.
Eksigent ekspert™ MicroLC 200
ESI-Q-TOF MS, positive-ion mode.
Precursor ions are designated, and for each of the precursor ions, 2 to 4 MS/MS fragment ions having the highest strength were selected. Ion extraction (±0.5 Da) was performed for the designated precursor ions and the MS/MS fragment ions, and the yield was calculated in accordance with the equation below.
For a chromatogram obtained by performing measurement in an Information Dependent Acquisition Mode, the yield was determined in accordance with the following equation from the peak area subjected to ion extraction (±0.5 Da) after designating the precursor ions. yield (%)=[A/A+P]×100 (here, A represents a peak area of an acetylated peptide and P represents a peak area of a propionylated peptide)

Assay [3] has as its target T1, histones (reconstituted nucleosome). Briefly: Acylation other than acetylation with catalyst and various acyl CoA (western blotting). Particulars: catalyst with the corresponding acyl CoA; FIG. 9.
Source text: as §1, §2, §3, §4
In light of the above, a study was carried out on whether or not acylation other than acetylation would be possible using the developed catalyst.

Another assay concerns cytoplasm proteins. Briefly: Comparison of reactivity of acetyl group donors with cytoplasm proteins (western blotting, anti-acetylated lysine antibody). Particulars: acetyl group donor 1 mM, cytoplasm fraction 20%, room temperature, 10 hours; FIG. 1B. The protocol:
Approximately 10^6 cells were detached from a culture dish by a trypsin treatment. After washed with PBS, the cell pellets were suspended in a cooled, cell lysis buffer [50 mM Tris (pH 7.5), 300 mMNaCl, 0.3% Triton X-100, protease inhibitor cocktail, and 1 mM PMSF], and placed on ice for 30 minutes. After the centrifugation (4° C., 1500 rpm, 2 minutes), the supernatant was collected as a cytoplasm fraction.
as §1, §2, §5

Setting [4] is: Ligand-DSH 2 μM, acetyl CoA 1 mM, TCEP 100 μM, 5 hours.

For the molecule `CC(=O)NCCSC(C)=O`, the histone-selective acetylation result in assay [1] is “histone-selective acetylation was observed in the same way”.

Turning to `CSCC[C@H](NC(=O)CNC(=O)CCN(C)c1ccnc(CS)c1)C(=O)NC(CCCNC(=N)N)C(=O)N[C@@H](CC(C)C)C(=O)NC(CCCNC(=N)N)C(=O)N[C@@H](CO)C(=O)NCC(=O)N[C@@H](CCCNC(=N)N)C(=O)NC(CO)C(=O)N[C@H](C(=O)NCC(N)=O)C(C)O` (stereo partly shown) [LANA-DSH] (X1-GM[ξR]L[ξR]SGR[ξS][Thr(3ξ)]G-NH2), the “acetylation of H2BK120 (western blotting)” value in assay [2] (anti-acetyl Histone H2B (Lys120)) is given as “strongly acetylated”. The “acetylation yield of H2BK120” value at reconstituted nucleosome (setting [4]) is recorded as 54%. Also, at reconstituted nucleosome, the lysine residue selectivity entry was “extremely high”. Besides, in assay [1], the histone-selective acetylation entry was “histone-selective acetylation was achieved”. Further, in assay [3], the 2-hydroxy-iso-butyrylation result was “enabled”, the biotinylation entry is on record as “enabled”, the butyrylation result is “enabled” and the glutarylation result is listed as “enabled”. Besides, the malonylation result in assay [3] is listed as “enabled”.

With `CON(C(C)=O)C(C)=O` [NMD, N-methoxydiacetamide], in the assay on cytoplasm proteins, the “non-selective acetylation of cytoplasm proteins” value is recorded as “non-selectively acetylated a large quantity of protein”.

`CN(CCCNC(=O)CCN(C)c1ccnc(CS)c1)CCCNC(=O)c1cc(NC(=O)c2cc(NC(=O)c3cc(NC(=O)c4nc(NC(=O)CCCNC(=O)c5cc(NC(=O)c6cc(NC(=O)c7cc(NC(=O)c8nccn8C)cn7C)cn6C)cn5C)cn4C)cn3C)cn2C)cn1C` [PIP-DSH]: the “acetylation of H4K77 (western blotting)” value in assay [2] (anti-acetyl Histone H4 (Lys77)) was “strongly acetylated”. Moreover, at reconstituted nucleosome (setting [4]), the “acetylation yield of H3K36” value is on record as 14%, the “acetylation yield of H3K56” value was found to be 9% and the “acetylation yield of H4K77” value worked out at 14%. Also, the lysine residue selectivity result at reconstituted nucleosome is “high”. Moreover, in assay [1], the histone-selective acetylation entry was “histone-selective acetylation was achieved”.

With `CC(=O)SCCNC(=O)CCNC(=O)[C@H](O)C(C)(C)COP(=O)(O)OP(=O)(O)OC[C@H]1O[C@@H](n2cnc3c(N)ncnc32)[C@H](O)[C@@H]1OP(=O)(O)O` [acetyl CoA, reference compound], the “non-selective acetylation of cytoplasm proteins” value with cytoplasm proteins is “did not cause such non-selective acetylation”. For the same molecule, the histone-selective acetylation result in assay [1] is “acetylation did not proceed”.

For the origin of these results see patent US11021461B2, “Artificial catalyst system for selective acylation of chromosome protein” (THE UNIVERSITY OF TOKYO, priority 2015, dated 2021).
